Measurements reported in patent EP0366632A1, “Alternative energy substrates” (priority 1988, dated 1990).

How the values were obtained:
[1] = system: Asperg. niger ATCC 16404 (mould); experiment: Microorganism count in 2% ester emulsions (Example 12, Table 1); type: cell-based; settings: 2% emulsion, phosphate buffer pH=7.0, +37°C, Additive/ml 7943
Experimental: (§1) In addition to ester, the emulsions also comprised egg-yolk phospholipid 1,2% and sterile water. The emulsions were prepared aseptically, by emulsifying sterile-filtered ester with a sterilized dispersion of egg-yolk phospholipids. Aliquots of these emulsions were diluted with a phosphate buffer (0.01 M, pH=7.0) in the proportions of 1 and 10 respectively, so as to obtain 2-percent emulsions. Various microorganisms according to Table 1 below were added to these emulsions. The samples were then incubated at +37°C for 20 hours. Counting of the number of microorganisms was started after 2 and 20 hours, in the manner described in microbiological literature. Checks were run on a pure phosphate buffer with additives of the same microorganisms as earlier, in parallel with the aforesaid experiments, while checks were run in Tryptone Soya broth (TSB) with additions of the same microorganisms, in order to ascertain whether or not the microorganisms could survive, i.e. could grow under the ideal conditions. […]

[2] = system: Cand. albicans ATCC 10231 (yeast); experiment: as above; type: cell-based; settings: 2% emulsion, phosphate buffer pH=7.0, +37°C, Additive/ml 6310
Experimental: as §1

Cand. parapsil. (yeast) = experiment: as above; type: cell-based; settings: 2% emulsion, phosphate buffer pH=7.0, +37°C, Additive/ml 5012
Experimental: as §1

E. coli ATCC 8739 = experiment: as above; type: cell-based; settings: 2% emulsion, phosphate buffer pH=7.0, +37°C, Additive/ml 6310
Experimental: as §1

Enter. cloacae = experiment: as above; type: cell-based; settings: 2% emulsion, phosphate buffer pH=7.0, +37°C, Additive/ml 1585
Experimental: as §1

Klebs. pneum. ATCC 25955 = experiment: as above; type: cell-based; settings: 2% emulsion, phosphate buffer pH=7.0, +37°C, Additive/ml 1995
Experimental: as §1

Penicillium sp. (mould) = experiment: as above; type: cell-based; settings: 2% emulsion, phosphate buffer pH=7.0, +37°C, Additive/ml 3162
Experimental: as §1

Proteus vulg. ATCC 13315 = experiment: as above; type: cell-based; settings: 2% emulsion, phosphate buffer pH=7.0, +37°C, Additive/ml 1000
Experimental: as §1

[3] = system: Ps. aeruginosa ATCC 19429; experiment: as above; type: cell-based; settings: 2% emulsion, phosphate buffer pH=7.0, +37°C, Additive/ml 7943
Experimental: as §1

Serr. maresc. ATCC 14756 = experiment: as above; type: cell-based; settings: 2% emulsion, phosphate buffer pH=7.0, +37°C, Additive/ml 6310
Experimental: as §1

Staf. aureus ATCC 6535 = experiment: as above; type: cell-based; settings: 2% emulsion, phosphate buffer pH=7.0, +37°C, Additive/ml 5012
Experimental: as §1

Staf. epiderm. = experiment: as above; type: cell-based; settings: 2% emulsion, phosphate buffer pH=7.0, +37°C, Additive/ml 6310
Experimental: as §1

Ulocladium sp. (mould) = experiment: as above; type: cell-based; settings: 2% emulsion, phosphate buffer pH=7.0, +37°C, Additive/ml 2512
Experimental: as §1

[4] = system: Escherichia coli ATCC 8739; experiment: Microorganism count in 2% and 0.2% ester emulsions (Example 14); type: cell-based; settings: for number of microorganisms: after 1-5 minutes, +37°C, starting concentration about 10⁴
Experimental: The emulsions contained egg-yolk phospholipid 1,2% and sterile water, in addition to ester. The emulsions were prepared aseptically, by emulsifying sterile-filtered ester with a steriled dispersion of egg-yolk phospholipids.
Aliquots of these emulsions were diluted with phosphate buffer (0.01 M, pH=7.0) in the proportions of 1 and 10 and 1 and 100 in respective emulsions. Escherichia coli ATCC 8739 was added to the solutions. The solutions were then incubated at +37°C for 20 hours. The microorganism count was carried out after 1-5 minutes, 2 and 20 hours, in the manner described in microbiological literature. Parallel with the above tests, a check was carried out on phospholipide solution 1,2% and TSB (Tryptone soya broth) with additions of Escherichia coli ATCC 8739. The latter substrate was tested to ascertain whether or not the control microorganisms were viable. […] The starting concentration was about 10⁴. In the samples containing 4-methyl-3-oxo-pentanoic acid ethyl ester having the concentrations of 2% and 0.2%, the number of microorganisms present per ml after 1-5 minutes was 0 and 10⁴ respectively. After 2 hours, the microorganism count was 0 and 10 respectively, and after 20 hours 0 and 10 respectively. In the samples containing 5-methyl-3-oxo-hexanoic acid ethyl ester with the concentrations of 2% and 0.2%, the microorganism count per ml was 10 and 10 respectively after 1-5 minutes, 0 and 0 respectively after 2 hours, and 0 and 0 respectively after 20 hours.

[5] = system: Candida albicans ATCC 10231; experiment: Microorganism count in 2% and 0.2% ester emulsions (Example 15); type: cell-based; settings: after 20 hours
Experimental: The emulsions contained egg-yolk phospholipid 1,2% and sterile water, in addition to ester. The emulsions were prepared aseptically, by emulsifying sterile-filtered ester with a sterilized dispersion of egg-yolk phospholipids.
Aliquots of these emulsions were diluted with phosphate buffer (0.01 M, pH=7.0) in the proportions of 1 and 10 and 1 and 100 of respective emulsions. Candida albicans ATCC 10231 was added to the emulsions. The samples were then incubated at +37°C for 20 hours. The microorganism count was carried out after […], 2 and 20 hours, in the manner described in microbiological literature. Parallel with the above tests, a check was made on phospholipide solution 1,2% and TSB (Tryptone soya broth) with additions Candida albicans ATCC 10231. The latter substrate was tested to ascertain whether or not the microorganisms were viable. After 20 hours, the microorganism count/ml in TSB was 10⁷, and in the phospholipid solution 10⁴. The starting concentration was about 10⁴. After 1-5 minutes, the microorganism count per […] of the tests containing 4-methyl-3-oxo-pentanoic acid ethyl ester with concentrations of 2% and 0.2% was 10⁴ and 10⁴ respectively. After 2 hours, the microorganism count was 10² and 10⁴ respectively, and after 20 hours 0 and 10⁴. […] After 20 hours, the count was 0 and 10² respectively.

Energy density = type: physicochemical
[6] = Cold storage of fat emulsion (Intralipid) with ester admixture: visual inspection, pH, mean particle size; type: physicochemical

| Compound | number of microorganisms ([1]; 2 hrs) | number of microorganisms ([1]; 20 hrs) | number of microorganisms ([2]; 2 hrs) | number of microorganisms ([2]; 20 hrs) | number of microorganisms (Cand. parapsil. (yeast); 2 hrs) | number of microorganisms (Cand. parapsil. (yeast); 20 hrs) | number of microorganisms (E. coli ATCC 8739; 2 hrs) | number of microorganisms (E. coli ATCC 8739; 20 hrs) | number of microorganisms (Enter. cloacae; 2 hrs) | number of microorganisms (Enter. cloacae; 20 hrs) | number of microorganisms (Klebs. pneum. ATCC 25955; 2 hrs) | number of microorganisms (Klebs. pneum. ATCC 25955; 20 hrs) | number of microorganisms (Penicillium sp. (mould); 2 hrs) | number of microorganisms (Penicillium sp. (mould); 20 hrs) | number of microorganisms (Proteus vulg. ATCC 13315; 2 hrs) | number of microorganisms (Proteus vulg. ATCC 13315; 20 hrs) | number of microorganisms ([3]; 2 hrs) | number of microorganisms ([3]; 20 hrs) | number of microorganisms (Serr. maresc. ATCC 14756; 2 hrs) | number of microorganisms (Serr. maresc. ATCC 14756; 20 hrs) | further results |
| --- | --- | --- | --- | --- | --- | --- | --- | --- | --- | --- | --- | --- | --- | --- | --- | --- | --- | --- | --- | --- | --- |
| CCOC(=O)CC(=O)C(C)C [4-methyl-3-oxo-pentanoic acid ethyl ester] | 3981 | 1000 | 200 | 0 | 1000 | 0 | 0 | 0 | 0 | 0 | 0 | 0 | 5012 | 0 | 0 | 0 | 0 | 0 | 0 | 0 | number of microorganisms (Staf. aureus ATCC 6535; 2 hrs): 0; number of microorganisms (Staf. aureus ATCC 6535; 20 hrs): 0; number of microorganisms (Staf. epiderm.; 2 hrs): 0; number of microorganisms (Staf. epiderm.; 20 hrs): 0; number of microorganisms (Ulocladium sp. (mould); 2 hrs): 3981; number of microorganisms (Ulocladium sp. (mould); 20 hrs): 0; microorganism count ([4]; 0.2%, after 2 hours): 10 per ml; microorganism count ([4]; 0.2%, after 20 hours): 10 per ml; number of microorganisms ([4]; 2%): 0 per ml; microorganism count ([4]; 2%, after 2 hours): 0 per ml; microorganism count ([4]; 2%, after 20 hours): 0 per ml; microorganism count [5]: 0 per ml; energy density (Energy density): 27.94 kJ/g; emulsion quality (oil droplets, creaming, oil separation), daily inspection ([6]; Example 5: mother concentrate in Intralipid 10%, 0.3% addition, +5°C, 5 days): had no affect on the quality; pH ([6]; Example 34: 20 percent fat emulsion, 3% emulsion, end of 5-day period (reference emulsion pH=7.9)): 5.6; emulsion stability, daily visual inspection ([6]; Example 34: pure ester in 20 percent fat emulsion, 0.1% admixture, +5°C, 5 days): remained stable over the whole of the test period; emulsion stability, daily visual inspection ([6]; Example 34: pure ester in 20 percent fat emulsion, 3% admixture, +5°C, 5 days): remained stable for four days |
| CCOC(=O)CC(=O)CC(C)C [5-methyl-3-oxo-hexanoic acid ethyl ester] | 5012 | 5012 | 1995 | 0 | 3162 | 0 | 0 | 0 | 0 | 0 | 0 | 0 | 3981 | 316 | 0 | 0 | 0 | 0 | 0 | 0 | number of microorganisms (Staf. aureus ATCC 6535; 2 hrs): 0; number of microorganisms (Staf. aureus ATCC 6535; 20 hrs): 0; number of microorganisms (Staf. epiderm.; 2 hrs): 794; number of microorganisms (Staf. epiderm.; 20 hrs): 25; number of microorganisms (Ulocladium sp. (mould); 2 hrs): 5012; number of microorganisms (Ulocladium sp. (mould); 20 hrs): 0; number of microorganisms ([4]; 0.2%): 10 per ml; microorganism count ([4]; 0.2%, after 2 hours): 0 per ml; microorganism count ([4]; 0.2%, after 20 hours): 0 per ml; number of microorganisms ([4]; 2%): 10 per ml; microorganism count ([4]; 2%, after 2 hours): 0 per ml; microorganism count ([4]; 2%, after 20 hours): 0 per ml; microorganism count [5]: 0 per ml; energy density (Energy density): 29.24 kJ/g; emulsion stability, daily visual inspection ([6]; Example 33: pure ester in 20 percent emulsion, 5%, +5°C, 5 days): unstable |
